Results on nine molecules are retold here after patent publication US9351955B2, “Compounds and pharmaceutical compositions thereof for the treatment of cystic fibrosis” (Galapagos NV, priority 2013, dated 2016).

Format in all cases: cell-based
In experiment [1] the target is T1, CFTR ΔF508 mutant (Homo sapiens, UniProt P13569, DEL508-508).
T1 construct: expressed in transfected cells; host or cells: CFBE41o- (adenoviral transduction)
The experiment in a line: YFP-halide influx assay for the CFTR-ΔF508 mutation (96 well, CFBE41o- cells). The conditions noted are these: compounds of the invention, 96 well, forskolin 10.67 μM, read-out: EC50 measured by YFP-halide influx assay for the CFTR-ΔF508. The gist of the method:
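CFBE41o- cells were adenovirally transduced with CFTR ΔF508 and the halide-sensitive YFP H148Q/I152L. They were then corrected either at 27 °C for 24 h or with a CFTR modulator for 24 h at 37 °C. After iodide injection, YFP quenching over 7 s was expressed as 1−F/F0, and EC50 was derived from the concentration–response plot.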

Experiment [2] has as its target T1, CFTR ΔF508 mutant. Briefly: YFP-halide influx assay for the CFTR-ΔF508 mutation (384 well, CFBE41o- cells, FDSS/μCell). The conditions noted are these: forskolin 10.67 μM, fluorescence after 36 seconds, read-out: EC50 measured by YFP-halide influx assay for the CFTR-ΔF508. In outline:
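CFBE41o- cells were adenovirally transduced with ΔF508 CFTR and the YFP H148Q/I152L reporter. Cells were then held 24 h at 27 °C or treated 24 h at 37 °C with a CFTR modulator. Iodide-induced quench was recorded for 2 min, and EC50 was derived from 1−F/F0 at 36 s against compound concentration.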

Another experiment addresses T2, CFTR-G178R (Homo sapiens, UniProt P13569, G178R).
T2 construct: expressed in transfected cells
Briefly: YFP-halide influx assay for the CFTR-G178R. The note with it: read-out: EC50 measured by YFP-halide influx assay for the CFTR-G178R. The source says: (§1) The YFP halide influx assay measures the functionality of the cystic fibrosis Transmembrane Conductance regulator (CFTR) channels. The assay is used to evaluate the capacity of compounds to increase the channel opening of existing mutant CFTR channels in the membrane. It makes use of the observation that the yellow fluorescent protein (YFP) variant YFP H148Q, I152L, F47L has its fluorescence substantially quenched by halide ions like Cl^− and I^−. (Galietta et al., 2001)
(§2) For this purpose, HEK293-cells are seeded in 96 well plates. During seeding, the cells are reverse-transfected with plasmid vectors that direct the expression of the CFTR G551D mutant and of the YFP reporter. Cells are incubated at 37° C., 5% CO2 for 24 hours so as to allow for sufficient expression of the CFTR protein.
(§3) The I^−-induced quenching of fluorescence is recorded immediately after injection of I^− for 7 seconds. The capacity of a compound to increase the channel opening is directly correlated with the decrease in fluorescence, and is expressed as (1−(fluorescence after 7 seconds (F)/fluorescence before injection (F0))) and an EC50 can be derived from a (1−F/F0) vs compound concentration plot.
(§4) Similar YHA assays were developed for other channel gating defective or channel conductance defective CFTR mutants to determine effect of compound on channel activity. Examples of mutants are G178R, G1349D, S549N, R117H, R334W. This assay is also used for additional class I CFTR mutants, including G542X, W1282X; class II mutants including N1303K, and for class III mutants including S1251N; or wild-type CFTR.

The target in a further experiment is T3, CFTR-G1349D (Homo sapiens, UniProt P13569, G1349D).
T3 construct: expressed in transfected cells
The experiment in a line: YFP-halide influx assay for the CFTR-G1349D. The conditions noted are these: CFTR-G1349D mutant; read-out: EC50 measured by YFP-halide influx assay for the CFTR-G1349D.
Description: as §1, §2, §3, §4

For the next experiment, the target named is T4, CFTR-S549N (Homo sapiens, UniProt P13569, S549N).
T4 construct: expressed in transfected cells
Briefly: YFP-halide influx assay for the CFTR-S549N. The conditions noted are these: CFTR-S549N mutant; read-out: EC50 measured by YFP-halide influx assay for the CFTR-S549N.
Description: as §1, §2, §3, §4

Another experiment addresses T5, CFTR-R117H (Homo sapiens, UniProt P13569, R117H).
T5 construct: expressed in transfected cells
The experiment in a line: YFP-halide influx assay for the CFTR-R117H. The note with it: CFTR-R117H mutant; read-out: EC50 measured by YFP-halide influx assay for the CFTR-R117H.
Description: as §1, §2, §3, §4

The target in a further experiment is T6, CFTR G551D mutant (Homo sapiens, UniProt P13569, G551D).
T6 construct: expressed in transfected cells; host or cells: HEK293 (reverse transfection with plasmids)
Briefly: YFP-halide influx assay for the CFTR-G551D mutation (HEK293 cells). The note with it: HEK293 cells expressing CFTR G551D and YFP reporter; forskolin 10.67 μM; read-out: EC50 measured by YFP-halide influx assay for the CFTR-G551D. In outline: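 HEK293 cells reverse-transfected with CFTR G551D and halide-sensitive YFP, expressed 24 h at 37 °C. Iodide-induced fluorescence quench recorded for 7 s after I^− injection; response as 1−F/F0, EC50 from concentration plot.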

Bounds are passed on as bounds.

T6 sequence (P13569 whole entry G551D): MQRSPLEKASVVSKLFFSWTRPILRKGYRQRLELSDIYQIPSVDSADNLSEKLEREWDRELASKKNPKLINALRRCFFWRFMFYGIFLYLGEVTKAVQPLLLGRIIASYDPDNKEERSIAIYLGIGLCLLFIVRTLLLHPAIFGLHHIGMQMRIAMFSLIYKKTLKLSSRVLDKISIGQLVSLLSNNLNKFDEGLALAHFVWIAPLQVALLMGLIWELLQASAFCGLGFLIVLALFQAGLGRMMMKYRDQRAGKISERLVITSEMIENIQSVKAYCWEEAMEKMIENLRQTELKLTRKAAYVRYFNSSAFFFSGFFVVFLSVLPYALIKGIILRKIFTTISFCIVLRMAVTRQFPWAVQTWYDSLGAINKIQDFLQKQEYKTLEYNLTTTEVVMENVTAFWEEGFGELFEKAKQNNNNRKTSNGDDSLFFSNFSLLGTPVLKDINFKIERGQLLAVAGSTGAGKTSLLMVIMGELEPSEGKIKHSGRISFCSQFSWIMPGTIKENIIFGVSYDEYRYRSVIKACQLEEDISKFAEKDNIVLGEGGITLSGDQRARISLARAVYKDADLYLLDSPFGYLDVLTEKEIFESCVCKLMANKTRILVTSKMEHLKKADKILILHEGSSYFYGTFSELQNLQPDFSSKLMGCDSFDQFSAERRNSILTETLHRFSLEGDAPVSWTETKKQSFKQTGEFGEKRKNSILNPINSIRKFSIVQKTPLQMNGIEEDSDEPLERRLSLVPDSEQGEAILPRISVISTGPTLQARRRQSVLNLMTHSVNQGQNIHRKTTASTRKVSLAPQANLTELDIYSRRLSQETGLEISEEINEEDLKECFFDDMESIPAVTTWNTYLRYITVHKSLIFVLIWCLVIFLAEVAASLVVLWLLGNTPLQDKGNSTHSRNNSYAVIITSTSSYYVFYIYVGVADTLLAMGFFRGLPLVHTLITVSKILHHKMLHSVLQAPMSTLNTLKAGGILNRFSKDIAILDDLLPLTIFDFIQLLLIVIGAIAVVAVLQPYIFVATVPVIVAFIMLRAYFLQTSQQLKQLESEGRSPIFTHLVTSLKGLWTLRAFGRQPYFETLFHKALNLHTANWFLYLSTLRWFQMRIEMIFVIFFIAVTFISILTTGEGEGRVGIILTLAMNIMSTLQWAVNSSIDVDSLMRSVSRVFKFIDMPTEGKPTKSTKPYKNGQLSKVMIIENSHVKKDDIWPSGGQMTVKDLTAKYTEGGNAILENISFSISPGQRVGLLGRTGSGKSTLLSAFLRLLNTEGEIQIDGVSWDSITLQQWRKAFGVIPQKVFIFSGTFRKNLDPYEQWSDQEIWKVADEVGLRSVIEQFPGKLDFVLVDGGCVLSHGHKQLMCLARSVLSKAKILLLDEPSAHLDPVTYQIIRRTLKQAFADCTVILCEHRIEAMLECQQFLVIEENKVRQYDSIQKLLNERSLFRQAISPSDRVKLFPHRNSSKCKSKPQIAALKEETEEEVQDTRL
T5 sequence (P13569 whole entry R117H): as the sequence (P13569 whole entry G551D) above, with R117H, D551G counted along it
T1 sequence (P13569 with tags, fused parts or gaps DEL508-508): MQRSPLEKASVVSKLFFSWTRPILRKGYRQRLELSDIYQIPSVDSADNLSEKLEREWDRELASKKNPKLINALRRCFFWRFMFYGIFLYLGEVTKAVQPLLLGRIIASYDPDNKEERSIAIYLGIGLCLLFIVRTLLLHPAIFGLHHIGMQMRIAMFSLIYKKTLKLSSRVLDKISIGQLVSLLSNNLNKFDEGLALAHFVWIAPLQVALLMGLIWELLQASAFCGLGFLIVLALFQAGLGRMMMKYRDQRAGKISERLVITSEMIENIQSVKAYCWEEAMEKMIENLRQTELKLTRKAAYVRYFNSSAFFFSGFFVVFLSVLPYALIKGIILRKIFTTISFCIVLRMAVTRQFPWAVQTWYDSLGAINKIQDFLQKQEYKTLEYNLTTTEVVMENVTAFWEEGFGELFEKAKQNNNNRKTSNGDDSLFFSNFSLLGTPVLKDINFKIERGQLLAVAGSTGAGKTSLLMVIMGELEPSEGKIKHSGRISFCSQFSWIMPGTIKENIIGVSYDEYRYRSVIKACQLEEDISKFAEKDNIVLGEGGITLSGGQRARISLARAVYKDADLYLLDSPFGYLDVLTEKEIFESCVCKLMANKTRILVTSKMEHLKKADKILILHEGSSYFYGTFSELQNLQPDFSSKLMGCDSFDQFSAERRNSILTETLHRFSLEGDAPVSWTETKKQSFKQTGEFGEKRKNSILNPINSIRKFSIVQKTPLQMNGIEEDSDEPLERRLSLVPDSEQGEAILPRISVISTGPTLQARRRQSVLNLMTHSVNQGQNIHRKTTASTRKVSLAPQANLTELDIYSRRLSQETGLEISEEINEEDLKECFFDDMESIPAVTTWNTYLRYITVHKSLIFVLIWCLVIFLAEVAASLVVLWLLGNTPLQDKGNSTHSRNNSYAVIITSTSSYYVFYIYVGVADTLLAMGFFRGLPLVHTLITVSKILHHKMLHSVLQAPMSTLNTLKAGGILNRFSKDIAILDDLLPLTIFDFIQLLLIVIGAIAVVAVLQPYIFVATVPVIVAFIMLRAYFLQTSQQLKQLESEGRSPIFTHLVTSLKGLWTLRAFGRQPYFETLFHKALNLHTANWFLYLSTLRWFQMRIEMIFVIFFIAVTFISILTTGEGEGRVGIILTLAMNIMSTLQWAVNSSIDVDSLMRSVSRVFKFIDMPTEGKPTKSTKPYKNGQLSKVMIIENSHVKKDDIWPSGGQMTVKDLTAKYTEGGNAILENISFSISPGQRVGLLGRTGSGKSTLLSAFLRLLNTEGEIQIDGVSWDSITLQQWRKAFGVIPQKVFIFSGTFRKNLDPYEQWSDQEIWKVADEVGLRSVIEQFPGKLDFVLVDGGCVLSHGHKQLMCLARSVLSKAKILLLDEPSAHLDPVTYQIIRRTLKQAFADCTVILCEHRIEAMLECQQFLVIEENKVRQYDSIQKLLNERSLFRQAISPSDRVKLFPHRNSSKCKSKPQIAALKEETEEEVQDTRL
T2 sequence (P13569 whole entry G178R): as the sequence (P13569 whole entry G551D) above, with G178R, D551G counted along it
T4 sequence (P13569 whole entry S549N): as the sequence (P13569 whole entry G551D) above, with S549N, D551G counted along it
T3 sequence (P13569 whole entry G1349D): as the sequence (P13569 whole entry G551D) above, with D551G, G1349D counted along it

For `COCc1cc(C(=O)Nc2sc3c(c2C(N)=O)CC(C)(C)OC3(C)C)n[nH]1` [Compound 42, N-(3-carbamoyl-5,5,7,7-tetramethyl-5,7-dihydro-4H-thieno[2,3-c]pyran-2-yl)-5-(methoxymethyl)-1H-pyrazole-3-carboxamide], the EC50 (commonly the midpoint of the concentration-response curve) on CFTR ΔF508 mutant [1] came out at 0.0122 µM; at CFTR ΔF508 mutant [2] it was 0.0153 µM; at CFTR-G178R, 0.156 µM; at CFTR-G1349D it was 0.678 µM; at CFTR-S549N, 0.508 µM; at CFTR-R117H, 0.193 µM.

For `CC1(C)Cc2c(sc(NC(=O)c3cc(C(F)(F)F)[nH]n3)c2C(N)=O)C(C)(C)O1` [Compound 15, N-(3-carbamoyl-5,5,7,7-tetramethyl-5,7-dihydro-4H-thieno[2,3-c]pyran-2-yl)-5-(trifluoromethyl)-1H-pyrazole-3-carboxamide], the EC50 was determined as 0.00756 µM at CFTR ΔF508 mutant [1]; 0.00272 µM at CFTR ΔF508 mutant [2]; 0.0775 µM on CFTR G551D mutant; 0.0875 µM at CFTR-G178R; 0.0753 µM at CFTR-G1349D; 0.208 µM on CFTR-S549N. For the same molecule, the EC50 on CFTR-R117H turned out to be 0.158 µM.

For the molecule `CC1(C)Cc2c(sc(NC(=O)c3n[nH]cc3Br)c2C(N)=O)C(C)(C)O1` [Compound 33, 4-bromo-N-(3-carbamoyl-5,5,7,7-tetramethyl-5,7-dihydro-4H-thieno[2,3-c]pyran-2-yl)-1H-pyrazole-3-carboxamide], the EC50 at CFTR ΔF508 mutant [1] was found to be 0.004 µM; on CFTR ΔF508 mutant [2] it was 0.00693 µM; at CFTR G551D mutant, 0.092 µM; on CFTR-G178R, 0.0886 µM; on CFTR-G1349D, 0.116 µM; on CFTR-S549N it was 0.164 µM. Further, the EC50 at CFTR-R117H stood at 0.165 µM.

As for `Cc1[nH]nc(C(=O)Nc2sc3c(c2C(N)=O)CC(C)(C)OC3(C)C)c1Cl` [Compound 34, N-(3-carbamoyl-5,5,7,7-tetramethyl-5,7-dihydro-4H-thieno[2,3-c]pyran-2-yl)-4-chloro-5-methyl-1H-pyrazole-3-carboxamide], the EC50 at CFTR ΔF508 mutant [1] came out at 0.01 µM; at CFTR ΔF508 mutant [2], 0.0101 µM; on CFTR G551D mutant, 0.27 µM; at CFTR-G178R, 0.0422 µM; on CFTR-G1349D, 0.0474 µM; on CFTR-S549N, 0.444 µM. In addition, the EC50 on CFTR-R117H was found to be 0.301 µM.

As for `CC1(C)Cc2c(sc(NC(=O)c3cc(C4CC4)[nH]n3)c2C(N)=O)C(C)(C)O1` [Compound 13, N-(3-carbamoyl-5,5,7,7-tetramethyl-5,7-dihydro-4H-thieno[2,3-c]pyran-2-yl)-5-cyclopropyl-1H-pyrazole-3-carboxamide], the EC50 was determined as 0.0179 µM on CFTR ΔF508 mutant [1]; 0.00613 µM on CFTR ΔF508 mutant [2]; 0.198 µM at CFTR G551D mutant; 0.0988 µM on CFTR-G178R; 0.0753 µM at CFTR-G1349D; 0.158 µM at CFTR-S549N. For the same molecule, on CFTR-R117H, the EC50 came to 0.177 µM.

Regarding `CC1(C)Cc2c(sc(NC(=O)C3(CO)CCC3)c2C(N)=O)C(C)(C)O1` [Compound 40, 2-(1-(hydroxymethyl)cyclobutanecarboxamido)-5,5,7,7-tetramethyl-5,7-dihydro-4H-thieno[2,3-c]pyran-3-carboxamide], the 50% effective concentration (EC50) on CFTR ΔF508 mutant [1] is 0.032 µM; at CFTR ΔF508 mutant [2] it was 0.0356 µM; on CFTR-G178R, above 3.33 µM; on CFTR-G1349D, 1.91 µM; at CFTR-S549N, 1.93 µM; on CFTR-R117H it was 2.9 µM.

Consider `CC1(C)Cc2c(sc(NC(=O)C(O)C(C)(C)C)c2C(N)=O)C(C)(C)O1` (centres unmarked) [Compound 38, 2-(2-hydroxy-3,3-dimethylbutanamido)-5,5,7,7-tetramethyl-5,7-dihydro-4H-thieno[2,3-c]pyran-3-carboxamide], for which the EC50 at CFTR ΔF508 mutant [1] stood at 0.005 µM; on CFTR ΔF508 mutant [2], 0.00599 µM; on CFTR-G178R, 0.0968 µM; on CFTR-G1349D, 0.517 µM; on CFTR-S549N, 0.69 µM; at CFTR-R117H it was 0.0643 µM.

With `CC(C)c1cc(C(=O)Nc2sc3c(c2C(N)=O)CC(C)(C)OC3(C)C)n[nH]1` [Compound 14, N-(3-carbamoyl-5,5,7,7-tetramethyl-5,7-dihydro-4H-thieno[2,3-c]pyran-2-yl)-5-isopropyl-1H-pyrazole-3-carboxamide], the EC50 on CFTR ΔF508 mutant [1] was 0.0322 µM; at CFTR ΔF508 mutant [2], 0.00944 µM; on CFTR G551D mutant, 0.377 µM; on CFTR-G178R it was 0.169 µM; on CFTR-G1349D, 0.371 µM; at CFTR-S549N, 0.253 µM. Moreover, the EC50 at CFTR-R117H stood at 0.207 µM.

On to `CC(C)C(O)C(=O)Nc1sc2c(c1C(N)=O)CC(C)(C)OC2(C)C` (centres unmarked) [Compound 39, 2-(2-hydroxy-3-methylbutanamido)-5,5,7,7-tetramethyl-5,7-dihydro-4H-thieno[2,3-c]pyran-3-carboxamide], for which the EC50 at CFTR ΔF508 mutant [1] worked out at 0.006 µM; on CFTR ΔF508 mutant [2], 0.00451 µM; on CFTR-G178R, 1.36 µM; at CFTR-G1349D, 1.34 µM; on CFTR-S549N, 1.1 µM; on CFTR-R117H, 0.145 µM.
